Results published in US20250066344A1 (BRISTOL-MYERS SQUIBB COMPANY, priority 2021, published 2025).

These compounds were tested against T1, human RXFP1 (Homo sapiens, UniProt Q9HBX9) (assay: RXFP1 cyclic adenosine monophosphate (cAMP) assay, hRXFP1 HEK293). Settings: HEK293 cells stably expressing human RXFP1; 30 min at room temperature; HTRF cAMP.
T1 construct: expressed in transfected cells
T1 sequence (Q9HBX9 1-757): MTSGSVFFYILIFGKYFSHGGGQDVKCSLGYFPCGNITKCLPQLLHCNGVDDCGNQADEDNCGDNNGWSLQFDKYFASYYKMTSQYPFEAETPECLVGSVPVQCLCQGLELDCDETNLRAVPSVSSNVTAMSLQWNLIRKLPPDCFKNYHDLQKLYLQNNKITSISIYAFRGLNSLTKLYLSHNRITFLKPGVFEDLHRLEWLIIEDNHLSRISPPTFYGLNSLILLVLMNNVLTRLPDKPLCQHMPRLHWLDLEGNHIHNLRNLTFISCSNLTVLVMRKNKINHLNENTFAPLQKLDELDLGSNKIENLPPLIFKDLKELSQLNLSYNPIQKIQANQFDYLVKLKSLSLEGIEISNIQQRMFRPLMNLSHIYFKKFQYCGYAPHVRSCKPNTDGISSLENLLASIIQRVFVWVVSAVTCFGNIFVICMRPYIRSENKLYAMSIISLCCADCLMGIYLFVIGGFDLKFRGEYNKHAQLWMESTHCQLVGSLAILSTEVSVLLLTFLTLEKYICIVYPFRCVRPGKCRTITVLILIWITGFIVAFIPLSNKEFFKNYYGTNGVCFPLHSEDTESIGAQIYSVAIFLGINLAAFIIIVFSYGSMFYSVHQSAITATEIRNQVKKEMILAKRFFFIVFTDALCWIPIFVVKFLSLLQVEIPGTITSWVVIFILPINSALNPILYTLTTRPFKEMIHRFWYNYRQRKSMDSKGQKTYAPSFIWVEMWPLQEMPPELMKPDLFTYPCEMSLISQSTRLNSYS
Format: cell-based
Description: RXFP1 Cyclic Adenosine Monophosphate (cAMP) Assays. Human embryonic kidney cells 293 (HEK293) cells and HEK293 cells stably expressing human RXFP1, were cultured in MEM medium supplemented with 10% qualified FBS, and 300 μg/ml hygromycin (Life Technologies). Cells were dissociated and suspended in assay buffer. The assay buffer was HBSS buffer (with calcium and magnesium) containing 20 mM HEPES, 0.05% BSA, and 0.5 mM IBMX. Cells (3000 cells per well, except 1500 cell per well for HEK293 cells stably expressing human RXFP1) were added to 384-well Proxiplates (Perkin-Elmer). Cells were immediately treated with test compounds in DMSO (2% final) at final concentrations in the range of 0.010 nM to 50 μM. Cells were incubated for 30 min at room temperature. The level of intracellular cAMP was determined using the HTRF HiRange cAMP assay reagent kit (Cisbio) according to manufacturer's instructions. Solutions of cryptate conjugated anti-cAMP and d2 fluorophore-labelled cAMP were made in a supplied lysis buffer separately. Upon completion of the reaction, the cells were lysed with equal volume of the d2-cAMP solution and anti-cAMP solution. After a 1 h room temperature incubation, time-resolved fluorescence intensity was measured using the Envision (Perkin-Elmer) at 400 nm excitation and dual emission at 590 nm and 665 nm. A calibration curve was constructed with an external cAMP standard at concentrations ranging from 2.7 μM to 0.1 μM by plotting the fluorescent intensity ratio from 665 nm emission to the intensity from the 590 nm emission against cAMP concentrations. The potency and activity of a compound to […] cAMP production was then determined by fitting to a 4-parametric logistic equation from a plot of cAMP level versus compound concentrations.
The examples disclosed below were tested in the human RXFP1 (hRXFP) HEK293 cAMP assay described above and found to have agonist activity. Tables 1-3, lists EC50 values in the hRXFP1 HEK293 cAMP assay measured for the examples.
Table A lists EC50 values in the hRXFP1 HEK293 cAMP assay measured for the examples.

Row | Structure (SMILES) | EC50 [nM]
1 | COc1ccc(C2=NOC3CC(N)CC23)cc1C(=O)Nc1cc2c(cc1C(=O)Nc1ccc(F)c(C(F)(F)F)c1)OC(F)(F)O2 (single isomer, unassigned) [Example 50, 6-(5-(5-amino-3a,5,6,6a-tetrahydro-4H-cyclopenta[d]isoxazol-3-yl)-2-methoxybenzamido)-2,2-difluoro-N-(4-fluoro-3-(trifluoromethyl)phenyl)benzo[d][1,3]dioxole-5-carboxamide] | 98
2 | COc1ccc(C2CCN(C(=O)C(C)(C)O)C2)cc1C(=O)Nc1cc2c(cc1C(=O)Nc1ccc(F)c(C(F)(F)F)c1)OC(F)(F)O2 (single isomer, unassigned) [Example 55, 2,2-difluoro-N-(4-fluoro-3-(trifluoromethyl)phenyl)-6-(5-(1-(2-hydroxy-2-methylpropanoyl)pyrrolidin-3-yl)-2-methoxybenzamido) benzo[d][1,3]dioxole-5-carboxamide] | 322
3 | COc1ccc(C2=NOC(C)(CO)C2)cc1C(=O)Nc1cc2c(cc1C(=O)Nc1ccc(F)c(C(F)(F)F)c1)OC(F)(F)O2 (single isomer, unassigned) [Example 71, 2,2-difluoro-N-(4-fluoro-3-(trifluoromethyl)phenyl)-6-(5-(5-(hydroxymethyl)-5-methyl-4,5-dihydroisoxazol-3-yl)-2-methoxybenzamido) benzo[d][1,3]dioxole-5-carboxamide] | 43
4 | COc1ccc(C2=NOC(C(C)(C)O)C2)cc1C(=O)Nc1cc2c(cc1C(=O)Nc1ccc(F)c(C(F)(F)F)c1)OC(F)(F)O2 (single isomer, unassigned) [Example 76, 2,2-difluoro-N-(4-fluoro-3-(trifluoromethyl)phenyl)-6-(5-(5-(2-hydroxypropan-2-yl)-4,5-dihydroisoxazol-3-yl)-2-methoxybenzamido) benzo[d][1,3]dioxole-5-carboxamide] | 258
5 | COc1ccc(C2=NOC(C(C)(C)O)C2)cc1C(=O)Nc1cc2c(cc1C(=O)Nc1ccc(F)c(C(F)(F)F)c1)OC(F)(F)O2 (single isomer, unassigned) [Example 77, 2,2-difluoro-N-(4-fluoro-3-(trifluoromethyl)phenyl)-6-(5-(5-(2-hydroxypropan-2-yl)-4,5-dihydroisoxazol-3-yl)-2-methoxybenzamido) benzo[d][1,3]dioxole-5-carboxamide] | 487
6 | O=C(Nc1cc2c(cc1C(=O)Nc1ccc(F)c(C(F)(F)F)c1)OC(F)(F)O2)c1csc(C2=NOC3COCC23)n1 (single isomer, unassigned) [Example 94, N-(2,2-difluoro-6-((4-fluoro-3-(trifluoromethyl)phenyl)carbamoyl)benzo[d][1,3]dioxol-5-yl)-2-(3a,4,6,6a-tetrahydrofuro[3,4-d]isoxazol-3-yl)thiazole-4-carboxamide] | 1400
7 | COc1ccc(C2=NOC3COCC23)cc1C(=O)Nc1cc2nc(C)sc2cc1C(=O)Nc1ccc(F)c(C(F)(F)F)c1 (centres unmarked) [Example 3, N-(4-fluoro-3-(trifluorometh-yl)phenyl)-5-(2-methoxy-5-(3a,4,6,6a-tetrahydrofuro [3,4-d]isox-azol-3-yl)-benzamido)-2-methylbenzo [d]thiazole-6-carboxamide] | 8.6
8 | COc1ccc(C2=NOC3CN(C(=O)CO)CC23)cc1C(=O)Nc1cc2nc(C)sc2cc1C(=O)Nc1ccc(F)c(C(F)(F)F)c1 (centres unmarked) [Example 5, N-(4-fluoro-3-(trifluorometh-yl)phenyl)-5-(5-(5-(2-hy-droxyacetyl)-3a,5,6,6a-tetra-hydro-4H-pyr-rolo[3,4-d]isoxazol-3-yl)-2-methoxy-benzamido)-2-methylbenzo [d]thiazole-6-carboxamide] | 16
9 | COc1ccc(C2=NOC3C(O)CC(O)C23)cc1C(=O)Nc1cc2nc(C)sc2cc1C(=O)Nc1ccc(F)c(C(F)(F)F)c1 (centres unmarked) [Example 7, 5-(5-(4,6-dihydroxy-3a,5,6,6a-tetra-hydro-4H-cyclopenta[d]isoxazol-3-yl)-2-methoxy-benzamido)-N-(4-fluoro-3-(trifluorometh-yl)phenyl)-2-methylbenzo [d]thiazole-6-carboxamide] | 31
10 | COc1ccc(C2=NOC3C4CCC(C4)C23)cc1C(=O)Nc1cc2nc(C)sc2cc1C(=O)Nc1ccc(F)c(C(F)(F)F)c1 (centres unmarked) [Example 10, N-(4-fluoro-3-(trifluorometh-yl)phenyl)-5-(5-(3a,4,5,6,7,7a-hexahydro-4,7-methano-benzo[d]isox-azol-3-yl)-2-methoxybenz-amido)-2-methylbenzo [d]thiazole-6-carboxamide] | 130
11 | COc1ccc(C2=NOC(C(C)(C)O)C2)cc1C(=O)Nc1cc2nc(C)sc2cc1C(=O)Nc1ccc(F)c(C(F)(F)F)c1 (centres unmarked) [Example 11, N-(4-fluoro-3-(trifluorometh-yl)phenyl)-5-(5-(5-(2-hydroxypro-pan-2-yl)-4,5-dihydroisox-azol-3-yl)-2-methoxybenz-amido)-2-methylbenzo [d]thiazole-6-carboxamide] | 160
12 | COCCOC1(C2CC(c3ccc(OC)c(C(=O)Nc4cc5nc(C)sc5cc4C(=O)Nc4ccc(F)c(C(F)(F)F)c4)c3)=NO2)CC1 (centres unmarked) [Example 12, N-(4-fluoro-3-(trifluorometh-yl)phenyl)-5-(2-methoxy-5-(5-(1-(2-meth-oxyethoxy)-cyclopropyl)-4,5-dihydro-isoxazol-3-yl)-benzamido)-2-methylbenzo [d]thiazole-6-carboxamide] | 290

Continued, values first:

Row | EC50 [nM] | Structure (SMILES)
13 | 683 | COc1ccc(C2CCNC2)cc1C(=O)Nc1cc2c(cc1C(=O)Nc1ccc(F)c(C(F)(F)F)c1)OC(F)(F)O2 (single isomer, unassigned) [Example 54, 2,2-difluoro-N-(4-fluoro-3-(trifluoromethyl)phenyl)-6-(2-methoxy-5-(pyrrolidin-3-yl)benzamido)benzo[d] [1,3]dioxole-5-carboxamide]
14 | 17 | COc1ccc(C2=NOC3CS(=O)(=O)CC23)cc1C(=O)Nc1cc2c(cc1C(=O)Nc1ccc(F)c(C(F)(F)F)c1)OC(F)(F)O2 (single isomer, unassigned) [Example 61, 6-(5-(5,5-dioxido-3a,4,6,6a-tetrahydrothieno[3,4-d]isoxazol-3-yl)-2-methoxybenzamido)-2,2-difluoro-N-(4-fluoro-3-(trifluoromethyl)phenyl) benzo[d][1,3]dioxole-5-carboxamide]
15 | 65 | COc1ccc(C2=NOC(CO)C2)cc1C(=O)Nc1cc2c(cc1C(=O)Nc1ccc(F)c(C(F)(F)F)c1)OC(F)(F)O2 (single isomer, unassigned) [Example 72, 2,2-difluoro-N-(4-fluoro-3-(trifluoromethyl)phenyl)-6-(5-(5-(hydroxymethyl)-4,5-dihydroisoxazol-3-yl)-2-methoxybenzamido) benzo[d][1,3]dioxole-5-carboxamide]
16 | 28 | COc1ccc(C2=NOC3CS(=O)(=O)CC23)cc1C(=O)Nc1cc2nc(C)sc2cc1C(=O)Nc1ccc(F)c(C(F)(F)F)c1 (centres unmarked) [Example 6, 5-(5-(5,5-diox-ido-3a,4,6,6a-tetrahydro-thieno[3,4-d]isoxazol-3-yl)-2-methoxy-benzamido)-N-(4-fluoro-3-(trifluorometh-yl)phenyl)-2-methylbenzo [d]thiazole-6-carboxamide]
17 | 110 | COc1ccc(C2=NOC3CC(COP(=O)(O)O)CC23)cc1C(=O)Nc1cc2nc(C)sc2cc1C(=O)Nc1ccc(F)c(C(F)(F)F)c1 (centres unmarked) [Example 9, (3-(3-((6-((4-fluoro-3-(trifluorometh-yl)phenyl)car-bamoyl)-2-methylbenzo [d]thiazol-5-yl)carbamo-yl)-4-meth-oxyphenyl)-3a,5,6,6a-tetra-hydro-4H-cyclopenta[d]isoxazol-5-yl)methyldi-hydrogen phosphate]
